Experiment: recombinant UMI read abundance after kanamycin selection (control-corrected) (log10(CPM+1)); higher = more efficient recombination; extreme values may be limits of the assay; sequences stand for … in AGTGCAGAGAAAATCGGCCAGTTTTCTCTGCCTGCAGTCCGCATGCCGTGGGACCCCTTGGGTTCTAACCTGTTGCCTAGATTTATGCAGCGGACTGCCTTTCTCCCAAAGTGATAAACCGG…AGGTTGGTTTCACT; site = the 11-nt donor
In short: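 Counts of recombinant UMIs were reported as log10(CPM+1). Before that, they were converted to CPM, averaged over replicates and scaled using control-derived factors. They came from PCR across the donor–target junction after Escherichia coli carrying the pair library and target plasmid was plated on IPTG (0.07 mM) plus kanamycin, or unselected, in two replicates each.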
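Further: IS621 bridge recombinase in Escherichia coli cells against a fixed T5 target plasmid.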

Sequence	recombinant UMI read abundance (log10)
CCGTAACCATGGACCGGTTTTCCCGGTAATCCGTATTTGGT (site CCGTAACCTAC)	0
CCGTAGCCATGGACCGGTTTTCCCGGTAATCCGTATTTGCC (site CCATAGCCTGG)	0
CCGTAGCCATGGACCGGTTTTCCCGGTAATCCGTATTTGCC (site CCCTAGCCTGG)	0
CCGTAGCCATGGACCGGTTTTCCCGGTAATCCGTATTTGCC (site CCGTAGCCTGG)	0
CCGTAGCCATGGACCGGTTTTCCCGGTAATCCGTATTTGCC (site CCTTAGCCTGG)	0
CCGTATACATGGACCGGTTTTCCCGGTAATCCGTATTTGCT (site CCGTATACTAG)	1.24
CCGTATACATGGACCGGTTTTCCCGGTAATCCGTATTTGCT (site CCGTCTACTAG)	0
CCGTATACATGGACCGGTTTTCCCGGTAATCCGTATTTGCT (site CCGTGTACTAG)	0
CCGTATACATGGACCGGTTTTCCCGGTAATCCGTATTTGCT (site CCGTTTACTAG)	0
CCGTATGCATGGACCGGTTTTCCCGGTAATCCGTATTTGAA (site CCGTATGCTTT)	1.14
CCGTCCCCATGGACCGGTTTTCCCGGTAATCCGTATTTGCT (site CCGTCCCCTAG)	0.00559
CCGTCGACATGGACCGGTTTTCCCGGTAATCCGTATTTGGG (site CAGTCGACTCC)	0.01
CCGTCGACATGGACCGGTTTTCCCGGTAATCCGTATTTGGG (site CCGTCGACTCC)	0.0232
CCGTCGACATGGACCGGTTTTCCCGGTAATCCGTATTTGGG (site CGGTCGACTCC)	0.0251
CCGTCGACATGGACCGGTTTTCCCGGTAATCCGTATTTGGG (site CTGTCGACTCC)	0
CCGTTAACATGGACCGGTTTTCCCGGTAATCCGTATTTGCT (site CCGTTAACTAG)	2.18
CCGTTAACATGGACCGGTTTTCCCGGTAATCCGTATTTGCT (site CCGTTCACTAG)	0
CCGTTAACATGGACCGGTTTTCCCGGTAATCCGTATTTGCT (site CCGTTGACTAG)	0.00307
CCGTTAACATGGACCGGTTTTCCCGGTAATCCGTATTTGCT (site CCGTTTACTAG)	0
CCGTTAGCATGGACCGGTTTTCCCGGTAATCCGTATTTGTA (site CCGTTAGCTAA)	0.0181
CCGTTAGCATGGACCGGTTTTCCCGGTAATCCGTATTTGTA (site CCGTTAGCTCA)	0.00671
CCGTTAGCATGGACCGGTTTTCCCGGTAATCCGTATTTGTA (site CCGTTAGCTGA)	0
CCGTTAGCATGGACCGGTTTTCCCGGTAATCCGTATTTGTA (site CCGTTAGCTTA)	0.601
CCGTTAGCATGGACCGGTTTTCCCGGTAATCCGTATTTGTC (site CCGTTAGCTAA)	0.0291
CCGTTAGCATGGACCGGTTTTCCCGGTAATCCGTATTTGTC (site CCGTTAGCTCA)	0.00762

Sequence	recombinant UMI read abundance (log10)
CCGTTAGCATGGACCGGTTTTCCCGGTAATCCGTATTTGTC (site CCGTTAGCTGA)	1.58
CCGTTAGCATGGACCGGTTTTCCCGGTAATCCGTATTTGTC (site CCGTTAGCTTA)	0.396
CCGTTAGCATGGACCGGTTTTCCCGGTAATCCGTATTTGTT (site CCGTTAGCTAA)	1.02
CCGTTAGCATGGACCGGTTTTCCCGGTAATCCGTATTTGTT (site CCGTTAGCTCA)	0.00936
CCGTTAGCATGGACCGGTTTTCCCGGTAATCCGTATTTGTT (site CCGTTAGCTGA)	0
CCGTTAGCATGGACCGGTTTTCCCGGTAATCCGTATTTGTT (site CCGTTAGCTTA)	0.00339
CCGTTATCATGGACCGGTTTTCCCGGTAATCCGTATTTGTG (site CCGTTAACTCA)	0.0485
CCGTTATCATGGACCGGTTTTCCCGGTAATCCGTATTTGTG (site CCGTTACCTCA)	0.00831
CCGTTATCATGGACCGGTTTTCCCGGTAATCCGTATTTGTG (site CCGTTAGCTCA)	0.0138
CCGTTATCATGGACCGGTTTTCCCGGTAATCCGTATTTGTG (site CCGTTATCTCA)	0.662
CCGTTCTCATGGACCGGTTTTCCCGGTAATCCGTATTTGGA (site CCGTTCTCTTC)	0
CCGTTTACATGGACCGGTTTTCCCGGTAATCCGTATTTGGT (site CCGTTTACTAA)	0.00739
CCGTTTACATGGACCGGTTTTCCCGGTAATCCGTATTTGGT (site CCGTTTACTAC)	0.279
CCGTTTACATGGACCGGTTTTCCCGGTAATCCGTATTTGGT (site CCGTTTACTAG)	0
CCGTTTACATGGACCGGTTTTCCCGGTAATCCGTATTTGGT (site CCGTTTACTAT)	0
CCGTTTCCATGGACCGGTTTTCCCGGTAATCCGTATTTGAC (site CCGTTTCCTGT)	0
CCGTTTTCATGGACCGGTTTTCCCGGTAATCCGTATTTGCT (site CCGTTTACTAG)	0
CCGTTTTCATGGACCGGTTTTCCCGGTAATCCGTATTTGCT (site CCGTTTCCTAG)	0.00608
CCGTTTTCATGGACCGGTTTTCCCGGTAATCCGTATTTGCT (site CCGTTTGCTAG)	0
CCGTTTTCATGGACCGGTTTTCCCGGTAATCCGTATTTGCT (site CCGTTTTCTAG)	0
CCTAAAGCATGGACCGGTTTTCCCGGTAATCCGTATTTGAT (site ACTAAAGCTAT)	0
CCTAAAGCATGGACCGGTTTTCCCGGTAATCCGTATTTGAT (site CATAAAGCTAT)	0
CCTAAAGCATGGACCGGTTTTCCCGGTAATCCGTATTTGAT (site CCAAAAGCTAT)	0
CCTAAAGCATGGACCGGTTTTCCCGGTAATCCGTATTTGAT (site CCCAAAGCTAT)	0.0148
CCTAAAGCATGGACCGGTTTTCCCGGTAATCCGTATTTGAT (site CCGAAAGCTAT)	0

Sequence	recombinant UMI read abundance (log10)
CCTAAAGCATGGACCGGTTTTCCCGGTAATCCGTATTTGAT (site CCTAAAACTAT)	0
CCTAAAGCATGGACCGGTTTTCCCGGTAATCCGTATTTGAT (site CCTAAACCTAT)	0.00391
CCTAAAGCATGGACCGGTTTTCCCGGTAATCCGTATTTGAT (site CCTAAAGCTAA)	0
CCTAAAGCATGGACCGGTTTTCCCGGTAATCCGTATTTGAT (site CCTAAAGCTAC)	0
CCTAAAGCATGGACCGGTTTTCCCGGTAATCCGTATTTGAT (site CCTAAAGCTAG)	0
CCTAAAGCATGGACCGGTTTTCCCGGTAATCCGTATTTGAT (site CCTAAAGCTAT)	0.14
CCTAAAGCATGGACCGGTTTTCCCGGTAATCCGTATTTGAT (site CCTAAAGCTCT)	0.00392
CCTAAAGCATGGACCGGTTTTCCCGGTAATCCGTATTTGAT (site CCTAAAGCTGT)	0
CCTAAAGCATGGACCGGTTTTCCCGGTAATCCGTATTTGAT (site CCTAAAGCTTT)	0
CCTAAAGCATGGACCGGTTTTCCCGGTAATCCGTATTTGAT (site CCTAAATCTAT)	0
CCTAAAGCATGGACCGGTTTTCCCGGTAATCCGTATTTGAT (site CCTAACGCTAT)	0.035
CCTAAAGCATGGACCGGTTTTCCCGGTAATCCGTATTTGAT (site CCTAAGGCTAT)	0
CCTAAAGCATGGACCGGTTTTCCCGGTAATCCGTATTTGAT (site CCTAATGCTAT)	0.00544
CCTAAAGCATGGACCGGTTTTCCCGGTAATCCGTATTTGAT (site CCTACAGCTAT)	0.0037
CCTAAAGCATGGACCGGTTTTCCCGGTAATCCGTATTTGAT (site CCTAGAGCTAT)	0.00698
CCTAAAGCATGGACCGGTTTTCCCGGTAATCCGTATTTGAT (site CCTATAGCTAT)	0.00347
CCTAAAGCATGGACCGGTTTTCCCGGTAATCCGTATTTGAT (site CCTCAAGCTAT)	0.00248
CCTAAAGCATGGACCGGTTTTCCCGGTAATCCGTATTTGAT (site CCTGAAGCTAT)	0
CCTAAAGCATGGACCGGTTTTCCCGGTAATCCGTATTTGAT (site CCTTAAGCTAT)	0.0074
CCTAAAGCATGGACCGGTTTTCCCGGTAATCCGTATTTGAT (site CGTAAAGCTAT)	0
CCTAAAGCATGGACCGGTTTTCCCGGTAATCCGTATTTGAT (site CTTAAAGCTAT)	0.00697
CCTAAAGCATGGACCGGTTTTCCCGGTAATCCGTATTTGAT (site GCTAAAGCTAT)	0
CCTAAAGCATGGACCGGTTTTCCCGGTAATCCGTATTTGAT (site TCTAAAGCTAT)	0.00543
CCTAAAGCATGGACCGGTTTTCCCGGTAATCCGTATTTGGA (site CCTAAAGCTTC)	0.0116
CCTAAGACATGGACCGGTTTTCCCGGTAATCCGTATTTGGC (site CCTAAAACTGC)	0

— the supplement of paper PMC11208160
